Results published in patent publication US12660819B2, “Herbicidal derivatives” (SYNGENTA CROP PROTECTION AG, priority 2020, dated 2026).

Columns and labels:
Type in all cases: in vivo
[1] = system: Zea mays (ZEAMX); experiment: Post-emergence Test (glasshouse, percentage damage to the plant); settings: 1000 g/ha unless otherwise stated, evaluated after 13 days; for ZEAMX, percentage damage caused to the plant (five-point scale): post-emergence
Procedure, shortened: (§1)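 Seeds sown in pots in glasshouse (24/16 °C day/night, 14 h light, 65% humidity), then sprayed with compound at 1000 g/ha unless stated, from acetone/water 50:50 with 0.5% Tween 20. Damage assessed 13 days later on five-point scale (1=0–20% to 5=81–100%).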

[2] = system: Setaria faberi (SETFA); experiment: as above; settings: 1000 g/ha unless otherwise stated, evaluated after 13 days; for SETFA, percentage damage caused to the plant (five-point scale): post-emergence
Procedure, shortened: as §1

[3] = system: Echinochloa crus-galli (ECHCG); experiment: as above; settings: 1000 g/ha unless otherwise stated, evaluated after 13 days; for ECHCG, percentage damage caused to the plant (five-point scale): post-emergence
Procedure, shortened: (§2)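 Spray treatment of sown glasshouse pots at 1000 g/ha (default rate), vehicle acetone/water 50:50 plus 0.5% Tween 20. Read-out: percentage damage after 13 days, converted to a score where 5 denotes 81-100% and 1 denotes 0-20%.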

[4] = system: Amaranthus palmeri (AMAPA); experiment: as above; settings: 1000 g/ha unless otherwise stated, evaluated after 13 days; for AMAPA, percentage damage caused to the plant (five-point scale): post-emergence
Procedure, shortened: as §2

[5] = system: Amaranthus retoflexus (AMARE); experiment: as above; settings: 1000 g/ha unless otherwise stated, evaluated after 13 days; for AMARE, percentage damage caused to the plant (five-point scale): post-emergence
Procedure, shortened: as §2

[6] = system: Ipomoea hederacea (IPOHE); experiment: as above; settings: 1000 g/ha unless otherwise stated, evaluated after 13 days; for IPOHE, percentage damage caused to the plant (five-point scale): post-emergence
Procedure, shortened: as §1

[7] = system: Zea mays (ZEAMX); experiment: Pre-emergence Test (glasshouse, percentage damage to the plant); settings: 1000 g/ha unless otherwise stated; for percentage damage to the plant, ZEAMX (five-point scale): Zea mays
[8] = system: Echinochloa crus-galli (ECHCG); experiment: as above; settings: 1000 g/ha unless otherwise stated; for percentage damage to the plant, ECHCG (five-point scale): Echinochloa crus-galli
[9] = system: Ipomoea hederacea (IPOHE); experiment: as above; settings: 1000 g/ha unless otherwise stated; for percentage damage to the plant, IPOHE (five-point scale): Ipomoea hederacea
[10] = system: Setaria faberi (SETFA); experiment: as above; settings: 1000 g/ha unless otherwise stated; for percentage damage to the plant, SETFA (five-point scale): Setaria faberi
[11] = system: Amaranthus palmeri (AMAPA); experiment: as above; settings: 1000 g/ha unless otherwise stated; for percentage damage to the plant, AMAPA (five-point scale): Amaranthus palmeri
[12] = system: Amaranthus retoflexus (AMARE); experiment: as above; settings: 1000 g/ha unless otherwise stated; for percentage damage to the plant, AMARE (five-point scale): Amaranthus retoflexus

Row | Structure (SMILES) | ZEAMX, percentage damage caused to the plant (five-point scale) [1] | SETFA, percentage damage caused to the plant (five-point scale) [2] | ECHCG, percentage damage caused to the plant (five-point scale) [3] | AMAPA, percentage damage caused to the plant (five-point scale) [4] | AMARE, percentage damage caused to the plant (five-point scale) [5] | IPOHE, percentage damage caused to the plant (five-point scale) [6] | percentage damage to the plant, ZEAMX (five-point scale) [7] | percentage damage to the plant, ECHCG (five-point scale) [8] | percentage damage to the plant, IPOHE (five-point scale) [9] | percentage damage to the plant, SETFA (five-point scale) [10] | percentage damage to the plant, AMAPA (five-point scale) [11] | percentage damage to the plant, AMARE (five-point scale) [12] | other results
1 | CCn1c(C)c(-c2ccc(F)cc2OC)c(=O)c(C(=O)OC)c1-c1ccc(Cl)c(Cl)c1 [Compound 163, methyl 2-(3,4-dichlorophenyl)-1-ethyl-5-(4-fluoro-2-methoxy-phenyl)-6-methyl-4-oxo-pyridine-3-carboxylate] |  |  |  |  |  |  |  |  |  |  |  |  | Post-emergence Test ZEAMX, percentage damage to the plant (five-point scale) ([1]; post-emergence spray): 0; Post-emergence Test SETFA, percentage damage to the plant (five-point scale) ([2]; post-emergence spray): 0; Post-emergence Test ECHCG, percentage damage to the plant (five-point scale) ([3]; post-emergence spray): 0; Post-emergence Test AMAPA, percentage damage to the plant (five-point scale) ([4]; post-emergence spray): 2 (2=21-40%); Post-emergence Test AMARE, percentage damage to the plant (five-point scale) ([5]; post-emergence spray): 1 (1=0-20%); Post-emergence Test IPOHE, percentage damage to the plant (five-point scale) ([6]; post-emergence spray): 0; percentage damage to the plant, ZEAMX ([7]; five-point scale): 1 (1=0-20%); percentage damage to the plant, ECHCG ([8]; five-point scale): 0; percentage damage to the plant, IPOHE ([9]; five-point scale): 0; percentage damage to the plant, SETFA ([10]; five-point scale): 0; percentage damage to the plant, AMAPA ([11]; five-point scale): 1 (1=0-20%); percentage damage to the plant, AMARE ([12]; five-point scale): 1 (1=0-20%)
2 | CCn1c(C)c(-c2cc(C(F)(F)F)ccc2F)c(=O)c(C(=O)O)c1-c1ccc(Cl)c(Cl)c1 [Compound 206, 2-(3,4-dichlorophenyl)-1-ethyl-5-[2-fluoro-5-(trifluoromethyl)phenyl]-6-methyl-4-oxo-pyridine-3-carboxylic acid] | 1 (1=0-20%) | 4 (4=61-80%) | 2 (2=21-40%) | 4 (4=61-80%) | 4 (4=61-80%) | 2 (2=21-40%) | 0 | 2 (2=21-40%) | 3 (3=41-60%) | 5 (5=81-100%) | 4 (4=61-80%) | 2 (2=21-40%) | 
3 | CCn1c(C)c(-c2cccc(C(F)(F)F)c2F)c(=O)c(C(=O)O)c1-c1ccc(Cl)c(Cl)c1 [Compound 207, 2-(3,4-dichlorophenyl)-1-ethyl-5-[2-fluoro-3-(trifluoromethyl)phenyl]-6-methyl-4-oxo-pyridine-3-carboxylic acid] | 3 (3=41-60%) | 4 (4=61-80%) | 4 (4=61-80%) | 3 (3=41-60%) | 3 (3=41-60%) | 4 (4=61-80%) | 1 (1=0-20%) | 2 (2=21-40%) | 3 (3=41-60%) | 5 (5=81-100%) | 3 (3=41-60%) | 3 (3=41-60%) | 
4 | CCn1c(C)c(-c2ccc(Cl)cc2)c(=O)c(C(=O)O)c1-c1cnc(Cl)c(Cl)c1 [Compound 208, 5-(4-chlorophenyl)-2-(5,6-dichloro-3-pyridyl)-1-ethyl-6-methyl-4-oxo-pyridine-3-carboxylic acid] | 4 (4=61-80%) | 5 (5=81-100%) | 3 (3=41-60%) | 4 (4=61-80%) | 4 (4=61-80%) | 2 (2=21-40%) | 0 | 1 (1=0-20%) | 2 (2=21-40%) | 2 (2=21-40%) | 5 (5=81-100%) | 1 (1=0-20%) | 
5 | CCn1c(C)c(-c2ccc(Cl)cc2Cl)c(=O)c(C(=O)O)c1-c1cnc(Cl)c(Cl)c1 [Compound 209, 5-(2,4-dichlorophenyl)-2-(5,6-dichloro-3-pyridyl)-1-ethyl-6-methyl-4-oxo-pyridine-3-carboxylic acid] | 4 (4=61-80%) | 5 (5=81-100%) | 5 (5=81-100%) | 5 (5=81-100%) | 5 (5=81-100%) | 4 (4=61-80%) | 0 | 4 (4=61-80%) | 1 (1=0-20%) | 4 (4=61-80%) | 5 (5=81-100%) | 5 (5=81-100%) | 
6 | CCn1c(C)c(-c2ccc(F)cc2F)c(=O)c(C(=O)O)c1-c1cnc(Cl)c(Cl)c1 [Compound 210, 2-(5,6-dichloro-3-pyridyl)-5-(2,4-difluorophenyl)-1-ethyl-6-methyl-4-oxo-pyridine-3-carboxylic acid] | 3 (3=41-60%) | 4 (4=61-80%) | 4 (4=61-80%) | 4 (4=61-80%) | 5 (5=81-100%) | 3 (3=41-60%) | 0 | 1 (1=0-20%) | 0 | 2 (2=21-40%) | 4 (4=61-80%) | 3 (3=41-60%) | 
7 | CCn1c(C)c(-c2ccc(F)cc2)c(=O)c(C(=O)O)c1-c1cnc(Cl)c(Cl)c1 [Compound 211, 2-(5,6-dichloro-3-pyridyl)-1-ethyl-5-(4-fluorophenyl)-6-methyl-4-oxo-pyridine-3-carboxylic acid] | 1 (1=0-20%) | 1 (1=0-20%) | 1 (1=0-20%) | 3 (3=41-60%) | 2 (2=21-40%) | 1 (1=0-20%) | 0 | 1 (1=0-20%) | 0 | 0 | 4 (4=61-80%) | 1 (1=0-20%) | 
8 | CCn1c(C)c(-c2ccc(F)cc2F)c(=O)c(C(=O)OC)c1-c1cnc(Cl)c(Cl)c1 [Compound 213, methyl 2-(5,6-dichloro-3-pyridyl)-5-(2,4-difluorophenyl)-1-ethyl-6-methyl-4-oxo-pyridine-3-carboxylate] | 1 (1=0-20%) | 0 | 0 | 3 (3=41-60%) |  | 1 (1=0-20%) | 0 | 0 | 0 | 0 | 0 | 0 | 
